The text below walks through data of patent publication US20230365537A1, “POLO LIKE KINASE 4 INHIBITORS” (ORIC Pharmaceuticals, Inc., priority 2021, published 2023).

Assay [1] has as its target human recombinant PLK4 (Homo sapiens (Human), UniProt O00444). Description: PLK4 Biochemical Assay (ADP-Glo). The note with it: 0.5 nM PLK4, 8.0 µM ATP, 4.7 µM MBP, 6 hours at RT. The method, boiled down:
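Recombinant human PLK4 (added at 1.0 nM) was preincubated 15 min at RT with compound in 50 mM HEPES pH 7.5, 10 mM MgCl2, 1 mM EGTA, 1 mM DTT, 0.01% Brij-35, 0.01% BSA. ADP formed was detected by ADP-Glo luminescence (40 min ATP depletion, 30 min detection). IC50 came from a four-parameter fit.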
On the technique in general: ADP-Glo turns the ADP formed in a reaction into a luminescent signal.

Assay [2] concerns CHP-134 cells. The experiment in a line: CHP134 CellTiter-Glo (CTG) Assay. In kind it is cell-based. The conditions noted are these: 5 days, viable cells by CellTiter-Glo. As for the experimental part: Cells were seeded (200 cells/well) in 384-well plates for 16 hours. On day two, nine serial 1:3 compound dilutions were made in DMSO in a 96-well plate. The compounds were then further diluted into growth media using a BRAVO robot (Agilent, Santa Clara, CA). The diluted compounds were then added to quadruplicate wells in the 384-well cell plate and incubated at 37° C. and 5% CO2. After 5 days, relative numbers of viable cells were measured by luminescence using CellTiter-Glo® (Promega) according to the manufacturer’s instructions and read on a SPARK Multimode Microplate Reader (Tecan, Mannedorf Switzerland). The IC50 calculations for the values reported in Table 2 were carried out using Prism 6.0 software (GraphPad, San Diego).

Assay [3] deals with human recombinant Aurora A (Homo sapiens (Human), UniProt O14965). The experiment in a line: Aurora A Kinase Biochemical Assay (ADP-Glo). The note with it: ratio of Aurora A IC50 to PLK4 IC50 (selectivity).
human recombinant Aurora A, sequence (O14965 whole entry): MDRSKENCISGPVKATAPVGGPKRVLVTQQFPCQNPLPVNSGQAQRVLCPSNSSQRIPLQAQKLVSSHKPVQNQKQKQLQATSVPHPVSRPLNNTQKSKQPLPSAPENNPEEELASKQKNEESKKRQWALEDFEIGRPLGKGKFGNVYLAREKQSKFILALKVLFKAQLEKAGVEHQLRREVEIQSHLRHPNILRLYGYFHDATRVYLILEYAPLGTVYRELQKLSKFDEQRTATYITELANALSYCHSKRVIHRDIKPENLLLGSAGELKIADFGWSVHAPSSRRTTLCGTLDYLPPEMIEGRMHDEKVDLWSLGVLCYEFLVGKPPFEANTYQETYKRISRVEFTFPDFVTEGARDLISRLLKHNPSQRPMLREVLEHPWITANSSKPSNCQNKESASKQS
Assay [4] has as its target human recombinant Aurora B (Homo sapiens (Human), UniProt Q96GD4). Description: Aurora B Kinase Biochemical Assay (ADP-Glo). The note with it: ratio of Aurora B IC50 to PLK4 IC50 (selectivity). The method, boiled down: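 Recombinant human Aurora B (20 nM in pH 7.5 HEPES buffer with MgCl2, EGTA, DTT, Brij-35, BSA) preincubated with compound 15 min at RT. ADP formed quantified by ADP-Glo luminescence after ATP depletion (40 min) and detection (30 min). IC50 from four-parameter non-linear regression.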

human recombinant PLK4, sequence (O00444 whole entry): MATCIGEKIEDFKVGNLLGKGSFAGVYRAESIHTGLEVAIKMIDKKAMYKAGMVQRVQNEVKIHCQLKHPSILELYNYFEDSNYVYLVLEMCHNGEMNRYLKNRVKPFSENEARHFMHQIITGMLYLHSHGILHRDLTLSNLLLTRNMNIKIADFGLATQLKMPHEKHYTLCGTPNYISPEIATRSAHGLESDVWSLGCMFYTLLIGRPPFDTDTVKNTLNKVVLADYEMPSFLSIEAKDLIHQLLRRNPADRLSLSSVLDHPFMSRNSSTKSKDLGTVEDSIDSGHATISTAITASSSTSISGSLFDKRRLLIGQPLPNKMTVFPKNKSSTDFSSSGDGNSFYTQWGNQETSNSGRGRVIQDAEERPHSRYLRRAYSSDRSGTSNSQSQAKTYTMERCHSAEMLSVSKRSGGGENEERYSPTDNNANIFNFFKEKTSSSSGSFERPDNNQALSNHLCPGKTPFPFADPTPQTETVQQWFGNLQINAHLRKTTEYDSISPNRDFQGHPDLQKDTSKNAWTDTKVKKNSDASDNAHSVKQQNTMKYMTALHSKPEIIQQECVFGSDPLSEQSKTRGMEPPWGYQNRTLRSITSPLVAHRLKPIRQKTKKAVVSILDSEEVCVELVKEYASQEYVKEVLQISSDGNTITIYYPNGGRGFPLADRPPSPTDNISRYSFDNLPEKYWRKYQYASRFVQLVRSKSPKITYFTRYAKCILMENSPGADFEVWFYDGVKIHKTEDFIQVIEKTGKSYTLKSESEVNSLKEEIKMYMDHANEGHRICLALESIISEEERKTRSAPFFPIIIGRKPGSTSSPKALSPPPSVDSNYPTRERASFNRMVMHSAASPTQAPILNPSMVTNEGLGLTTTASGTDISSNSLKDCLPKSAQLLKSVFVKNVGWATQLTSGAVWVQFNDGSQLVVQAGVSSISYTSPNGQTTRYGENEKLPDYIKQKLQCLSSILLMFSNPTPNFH
human recombinant Aurora B, sequence (Q96GD4 whole entry): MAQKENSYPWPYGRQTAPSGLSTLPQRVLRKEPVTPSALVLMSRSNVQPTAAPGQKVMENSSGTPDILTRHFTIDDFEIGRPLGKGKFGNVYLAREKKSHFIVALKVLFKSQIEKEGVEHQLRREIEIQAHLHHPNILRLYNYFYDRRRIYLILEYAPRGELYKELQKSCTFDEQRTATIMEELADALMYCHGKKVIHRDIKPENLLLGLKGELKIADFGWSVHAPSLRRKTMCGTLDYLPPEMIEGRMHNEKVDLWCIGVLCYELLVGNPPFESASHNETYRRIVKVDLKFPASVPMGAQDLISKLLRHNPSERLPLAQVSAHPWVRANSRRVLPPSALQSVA

As for `COc1ccc2c(c1)[C@]1(C[C@H]1c1ccc3c(Nc4nc(C5CCOC5)ncc4OC)n[nH]c3c1)C(=O)N2` (single isomer, unassigned) [Example 201], the IC50 was determined as 1.71 nM in assay [1] and 455 nM in assay [2] (Homo sapiens, CHP-134, 120 h). The “[Aurora A IC50 (nM)]/[PLK4 IC50 (nM)]” value in assay [3] is reported as 485.6389. In addition, in assay [4], the “[Aurora B IC50 (nM)]/[PLK4 IC50 (nM)]” value came to 229.0739.
Turning to `COc1ccc2c(c1)[C@]1(C[C@H]1c1ccc3c(Nc4ccc([S+](C)[O-])nc4OC)n[nH]c3c1)C(=O)N2` (single isomer, unassigned) [Example 239], the IC50 is 1.69 nM in assay [1] and 949 nM in assay [2]. Moreover, the “[Aurora A IC50 (nM)]/[PLK4 IC50 (nM)]” value in assay [3] came out at 1429.5857. The “[Aurora B IC50 (nM)]/[PLK4 IC50 (nM)]” value in assay [4] was determined as 466.8047.
Take `COc1ccc2c(c1)[C@]1(CC1c1ccc3c(/C=C/c4ccc(CN5C[C@@H](C)O[C@@H](C)C5)cc4)n[nH]c3c1)C(=O)N2` (some centres unmarked) [CFI-400495, reference compound]: in assay [2] (Homo sapiens, CHP-134, 120 h), the IC50 worked out at 9.08 nM.
As to `COc1ccc2c(c1)[C@]1(C[C@H]1c1ccc3c(Nc4ncnc(N5CCCCC5)c4OC)n[nH]c3c1)C(=O)N2` [Example 12, (1R.2S)-5′-Methoxy-2-(3-{[5-methoxy-6-(piperidin-1-yl)pyrimidin-4-yl]amino}-1H-indazol-6-yl)spiro[cyclopropane-1,3′-indol]-2′(1′H)-one], the IC50 in assay [1] came to 4.96 nM; in assay [2] (Homo sapiens, CHP-134, 120 h) it was 2030 nM.
In turn, `COc1ccc2c(c1)[C@]1(C[C@H]1c1ccc3c(Nc4nc(OC)ncc4OC)n[nH]c3c1)C(=O)N2` [Example 156, (1R,2S)-2-{3-[(2,5-dimethoxypyrimidin-4-yl)amino]-1H-indazol-6-yl}-5′-methoxyspiro[cyclopropane-1,3′-indol]-2′(1′H)-one] yielded a concentration for half-maximal inhibition (IC50) in assay [2] (Homo sapiens, CHP-134, 120 h) of 494 nM.
With `COc1ccc2c(c1)[C@]1(C[C@H]1c1ccc3c(Nc4cc(N5CCN(C)C5=O)cnc4OC)n[nH]c3c1)C(=O)N2` [Example 221, (1R,2S)-5′-methoxy-2-(3-{[2-methoxy-5-(3-methyl-2-oxoimidazolidin-1-yl)pyridin-3-yl]amino}-1H-indazol-6-yl)spiro[cyclopropane-1,3′-indol]-2′(1′H)-one], the half-maximal inhibitory concentration (IC50) in assay [2] (Homo sapiens, CHP-134, 120 h) was 849 nM.
`COc1ccc2c(c1)[C@]1(C[C@H]1c1ccc3c(Nc4cc(S(=O)(=O)C5CCOCC5)ccc4OC)n[nH]c3c1)C(=O)N2` [Example 224, (1R,2S)-5′-methoxy-2-{3-[2-methoxy-5-(oxane-4-sulfonyl)anilino]-1H-indazol-6-yl}spiro[cyclopropane-1,3′-indol]-2′(1′H)-one] registered a half-inhibitory concentration (IC50) in assay [2] (Homo sapiens, CHP-134, 120 h) of 2020 nM.
Regarding `CCOc1nc(C(=O)N(C)C)cnc1Nc1n[nH]c2cc([C@@H]3C[C@@]34C(=O)Nc3ccc(OC)cc34)ccc12` [Example 237, 6-ethoxy-5-({6-[(1R,2S)-5′-methoxy-2′-oxo-1′,2′-dihydrospiro[cyclopropane-1,3′-indol]-2-yl]-1H-indazol-3-yl}amino)-N,N-dimethylpyrazine-2-carboxamide], in assay [1], the half-inhibitory concentration (IC50) was 2.94 nM. In assay [3], the “[Aurora A IC50 (nM)]/[PLK4 IC50 (nM)]” value was 3385.3211. For the same molecule, in assay [4], the “[Aurora B IC50 (nM)]/[PLK4 IC50 (nM)]” value was found to be 369.
On to `COc1ccc2c(c1)[C@]1(C[C@H]1c1ccc3c(Nc4cnc(P(C)(C)=O)cc4OC)n[nH]c3c1)C(=O)N2` [Example 249, (1R,2S)-2-(3-{[6-(dimethylphosphoryl)-4-methoxypyridin-3-yl]amino}-1H-indazol-6-yl)-5′-methoxyspiro[cyclopropane-1,3′-indol]-2′(1′H)-one], for which the half-maximal inhibitory concentration (IC50) in assay [1] amounted to 6.56 nM. Further, the “[Aurora A IC50 (nM)]/[PLK4 IC50 (nM)]” value in assay [3] was found to be 2585.7077. Moreover, the “[Aurora B IC50 (nM)]/[PLK4 IC50 (nM)]” value in assay [4] is 451.7751.
Regarding `COc1ccc2c(c1)[C@]1(C[C@H]1c1ccc3c(Nc4ccc(C(=O)NC(CF)CF)nc4OC)n[nH]c3c1)C(=O)N2` [Example 250, N-(1,3-difluoropropan-2-yl)-6-methoxy-5-({6-[(1R,2S)-5′-methoxy-2′-oxo-1′,2′-dihydrospiro[cyclopropane-1,3′-indol]-2-yl]-1H-indazol-3-yl}amino)pyridine-2-carboxamide], in assay [1], the half-inhibitory concentration (IC50) was found to be 6.19 nM. For the same molecule, the “[Aurora A IC50 (nM)]/[PLK4 IC50 (nM)]” value in assay [3] is on record as 819.6509. The “[Aurora B IC50 (nM)]/[PLK4 IC50 (nM)]” value in assay [4] is on record as 110.6011.
Regarding `COc1ccc2c(c1)[C@]1(C[C@H]1c1ccc3c(Nc4cc5oc(C)nc5cc4Cl)n[nH]c3c1)C(=O)N2` [Example 252, (1R,2S)-2-{3-[(5-chloro-2-methyl-1,3-benzoxazol-6-yl)amino]-1H-indazol-6-yl}-5′-methoxyspiro[cyclopropane-1,3′-indol]-2′(1′H)-one], the concentration for half-maximal inhibition (IC50) in assay [1] stood at 9.28 nM. Besides, in assay [3], the “[Aurora A IC50 (nM)]/[PLK4 IC50 (nM)]” value came to 518.4227. The “[Aurora B IC50 (nM)]/[PLK4 IC50 (nM)]” value in assay [4] is 365.8694.
With `COc1ccc2c(c1)[C@]1(C[C@H]1c1ccc3c(Nc4cnc(C(=O)N(C)C)cc4OC)n[nH]c3c1)C(=O)N2` [Example 253, 4-methoxy-5-({6-[(1R,2S)-5′-methoxy-2′-oxo-1′,2′-dihydrospiro[cyclopropane-1,3′-indol]-2-yl]-1H-indazol-3-yl}amino)-N,N-dimethylpyridine-2-carboxamide], the 50% inhibitory concentration (IC50) in assay [1] was 5.98 nM. In addition, the “[Aurora A IC50 (nM)]/[PLK4 IC50 (nM)]” value in assay [3] is 709.6288. Moreover, in assay [4], the “[Aurora B IC50 (nM)]/[PLK4 IC50 (nM)]” value is listed as 88.7161.
Consider `COc1ccc2c(c1)[C@]1(C[C@H]1c1ccc3c(Nc4ccc(C#N)nc4OC)n[nH]c3c1)C(=O)N2` [Example 260, 6-methoxy-5-({6-[(1R,2S)-5′-methoxy-2′-oxo-1′,2′-dihydrospiro[cyclopropane-1,3′-indol]-2-yl]-1H-indazol-3-yl}amino)pyridine-2-carbonitrile], for which the IC50 in assay [1] was determined as 9.33 nM. Also, in assay [3], the “[Aurora A IC50 (nM)]/[PLK4 IC50 (nM)]” value turned out to be 1330.5457. For the same molecule, the “[Aurora B IC50 (nM)]/[PLK4 IC50 (nM)]” value in assay [4] stood at 294.8429.
As to `CCP(=O)(CC)c1ccc(OC)c(Nc2n[nH]c3cc([C@@H]4C[C@@]45C(=O)Nc4ccc(OC)cc45)ccc23)c1` [Example 261, (1R,2S)-2-{3-[5-(diethylphosphoryl)-2-methoxyanilino]-1H-indazol-6-yl}-5′-methoxyspiro[cyclopropane-1,3′-indol]-2′(1′H)-one], the IC50 in assay [1] stood at 7.91 nM. The “[Aurora A IC50 (nM)]/[PLK4 IC50 (nM)]” value in assay [3] was found to be 5824.2730. For the same molecule, the “[Aurora B IC50 (nM)]/[PLK4 IC50 (nM)]” value in assay [4] is 2807.8381.
On to `CCOc1cc(S(=O)(=O)NC)cnc1Nc1n[nH]c2cc([C@@H]3C[C@@]34C(=O)Nc3ccc(OC)cc34)ccc12` [Example 275, 5-ethoxy-6-({6-[(1R,2S)-5′-methoxy-2′-oxo-1′,2′-dihydrospiro[cyclopropane-1,3′-indol]-2-yl]-1H-indazol-3-yl}amino)-N-methylpyridine-3-sulfonamide], for which the IC50 in assay [1] was 0.59 nM. For the same molecule, the “[Aurora A IC50 (nM)]/[PLK4 IC50 (nM)]” value in assay [3] is 2162.7118. Besides, the “[Aurora B IC50 (nM)]/[PLK4 IC50 (nM)]” value in assay [4] was 230.
The like results for `CCOc1cc(=O)n(C)nc1Nc1n[nH]c2cc([C@@H]3C[C@@]34C(=O)Nc3ccc(OC)cc34)ccc12` [Example 277, (1R,2S)-2-{3-[(4-ethoxy-1-methyl-6-oxo-1,6-dihydropyridazin-3-yl)amino]-1H-indazol-6-yl}-5′-methoxyspiro[cyclopropane-1,3′-indol]-2′(1′H)-one] were, in that order, 2.2 nM, 1120.5641 and 1049.1355.
In the case of `COc1ccc2c(c1)[C@]1(C[C@H]1c1ccc3c(Nc4nc(C(C)(C)O)ccc4OC)n[nH]c3c1)C(=O)N2` [Example 278, (1R,2S)-2-(3-{[6-(2-hydroxypropan-2-yl)-3-methoxypyridin-2-yl]amino}-1H-indazol-6-yl)-5′-methoxy-1′H-spiro[cyclopropane-1,3′-indol]-2′-one], the 50% inhibitory concentration (IC50) in assay [1] was found to be 0.804 nM. The “[Aurora A IC50 (nM)]/[PLK4 IC50 (nM)]” value in assay [3] was found to be 1269.9004. Besides, the “[Aurora B IC50 (nM)]/[PLK4 IC50 (nM)]” value in assay [4] was 423.6318.
Take `CCOc1cc(S(C)(=O)=O)ncc1Nc1n[nH]c2cc([C@@H]3C[C@@]34C(=O)Nc3ccc(OC)cc34)ccc12` [Example 279, (1R,2S)-2-{3-[(4-ethogy-6-methanesulfonylpyridin-3-yl)amino]-1H-indazol-6-yl}-5′-methoxy-1′H-spiro[cyclopropane-1,3′-indol]-2′-one]: in assay [1], the IC50 was 1.34 nM. Moreover, the “[Aurora A IC50 (nM)]/[PLK4 IC50 (nM)]” value in assay [3] came out at 37425.1497. Further, the “[Aurora B IC50 (nM)]/[PLK4 IC50 (nM)]” value in assay [4] was 2792.6646.
The like results for `COc1ccc2c(c1)[C@]1(C[C@H]1c1ccc3c(Nc4ncc(S(=O)(=O)C(F)F)cc4OC)n[nH]c3c1)C(=O)N2` [Example 280, (1R,2S)-2-{3-[(5-difluoromethanesulfonyl-3-methoxypyridin-2-yl)amino]-1H-indazol-6-yl}-5′-methoxy-1′H-spiro[cyclopropane-1,3′-indol]-2′-one] were, in that order, 1.93 nM, 727.2256 and 309.1097.

The IC50 is the point on the concentration scale where inhibition reaches its midpoint.
